Experiments:
[1] = system: AAD-12 (v1) gene T1 transformants (Arabidopsis); assay: T1 Arabidopsis postemergence herbicide dose response, % visual injury; format: in vivo, Arabidopsis thaliana
Experimental: Freshly harvested T1 seed [AAD-12 (v1) gene] was allowed to dry for 7 days at room temperature. T1 seed was sown in 26.5×51-cm germination trays (T.O. Plastics Inc., Clearwater, Minn.), each receiving a 200 mg aliquots of stratified T, seed (˜10,000 seed) that had previously been suspended in 40 ml of 0.1% agarose solution and stored at 4° C. for 2 days to complete dormancy requirements and ensure synchronous seed germination.
Sunshine Mix LP5 (Sun Gro Horticulture Inc., Bellevue, Wash.) was covered with fine vermiculite and subirrigated with Hoagland's solution until wet, then allowed to gravity drain. Each 40 ml aliquot of stratified seed was sown evenly onto the vermiculite with a pipette and covered with humidity domes (KORD Products, Bramalea. Ontario, Canada) for 4-5 days. Domes were removed 1 day prior to initial transformant selection using glufosinate postemergence spray (selecting for the co-transformed PAT gene).
Seven days after planting (DAP) and again 11 DAP, T1 plants (cotyledon and 2-4-lf stage, respectively) were sprayed with a 0.2% solution of Liberty herbicide (200 g ai/L glufosinate, Bayer Crop Sciences, Kansas City, Mo.) at a spray volume of 10 ml/tray (703 L/ha) using a DeVilbiss compressed air spray tip to deliver an effective rate of 280 g ai/ha glufosinate per application. Survivors (plants actively growing) were identified 4-7 days after the final spraying and transplanted individually into 3-inch pots prepared with potting media (Metro Mix 360). Transplanted plants were covered with humidity domes for 3-4 days and placed in a 22° C. growth chamber as before or moved to directly to the greenhouse. Domes were subsequently removed and plants reared in the greenhouse (22±5° C., 50±30% RH, 14 h light:10 dark, minimum 500 μE/m^2 s^1 natural+supplemental light) at least 1 day prior to testing for the ability of AAD-12 (v1) (plant optimized gene) to provide phenoxy auxin herbicide resistance.
(§1) T1 plants were then randomly assigned to various rates of 2,4-D. For Arabidopsis, 50 g ae/ha 2,4-D is an effective dose to distinguish sensitive plants from ones with meaningful levels of resistance. Elevated rates were also applied to determine relative levels of resistance (50, 200, 800, or 3200 g ac/ha). Tables 10 and 11 show comparisons drawn to an aryloxyalkanoate herbicide resistance gene (AAD-1 (v3)) previously described in PCT/US2005/014737.
(§2) All auxin herbicide applications were made using the DeVilbiss sprayer as described above to apply 703 L/ha spray volume (0.4 ml solution/3-inch pot) or applied by track sprayer in a 187 L/ha spray volume. 2,4-D used was either technical grade (Sigma, St. Louis, Mo.) dissolved in DMSO and diluted in water (<1% DMSO final concentration) or the commercial dimethylamine salt formulation (456 g ac/L, NuFarm, St Joseph, Mo.). Dichlorprop used was commercial grade formulated as potassium salt of R-dichlorprop (600 g ai/L, AH Marks). As herbicide rates increased beyond 800 g ae/ha, the pH of the spray solution became exceedingly acidic, burning the leaves of young, tender Arabidopsis plants and complicating evaluation of the primary effects of the herbicides. It became standard practice to apply these high rates of herbicides in 200 mM HEPES buffer, pH 7.5.
The first Arabidopsis transformations were conducted using AAD-12 (v1) (plant optimized gene). T1 transformants were first selected from the background of untransformed seed using a glufosinate selection scheme. Over 300,000 T1 seed were screened and 316 glufosinate resistant plants were identified (PAT gene), equating to a transformation/selection frequency of 0.10% which lies in the normal range of selection frequency of constructs where PAT+Liberty are used for selection. T1 plants selected above were subsequently transplanted to individual pots and sprayed with various rates of commercial aryloxyalkanoate herbicides. […]

[2] = system: Homozygous AAD-1 (v3) gene T4 plants (Arabidopsis); assay: T1 Arabidopsis postemergence herbicide dose response, AAD-1 comparison; format: in vivo, Arabidopsis thaliana
Text: as §1, §2
The first Arabidopsis transformations were conducted using AAD-12 (v1) (plant optimized gene). T1 transformants were first selected from the background of untransformed seed using a glufosinate selection scheme. Over 300,000 T1 seed were screened and 316 glufosinate resistant plants were identified (PAT gene), equating to a transformation/selection frequency of 0.10% which lies in the normal range of selection frequency of constructs where PAT+Liberty are used for selection. T1 plants selected above were subsequently transplanted to individual pots and sprayed with various rates of commercial aryloxyalkanoate herbicides. Table 11 compares the response of AAD-12 (v1) and control genes to impart 2,4-D resistance to Arabidopsis T1 transformants. Response is presented in terms of % visual injury 2 WAT. […] Since each T1 is an independent transformation event, one can expect significant variation of individual T1 responses within a given rate. An arithmetic mean and standard deviation is presented for each treatment. The range in individual response is also indicated in the last column for each rate and transformation. PAT/Cry1F-transformed Arabidopsis served as an auxin-sensitive transformed control. The AAD-12 (v1) gene imparted herbicide resistance to individual T1 Arabidopsis plants. Within a given treatment, the level of plant response varied greatly and can be attributed to the fact each plant represents an independent transformation event. Of important note, at each 2,4-D rate tested, there were individuals that were unaffected while some were severely affected. […] Injury levels tend to be greater and the frequency of uninjured plants was lower at elevated rates up to 3,200 g ae/ha (or 6× field rate). Also at these high rates, the spray solution becomes highly acidic unless buffered. Arabidopsis grown mostly in the growth chamber has a very thin cuticle and severe burning effects can complicate testing at these elevated rates. Nonetheless, many individuals have survived 3.200 g ac/ha 2,4-D with little or no injury.

[3] = 50 g ae/ha 2,4-D postemergence, 2 WAT
[4] = 200 g ae/ha 2,4-D postemergence, 2 WAT
[5] = 800 g ae/ha 2,4-D postemergence, 2 WAT
[6] = 3200 g ae/ha 2,4-D postemergence, 2 WAT
[7] = 50 g ae/ha R-dichlorprop postemergence
[8] = 200 g ae/ha R-dichlorprop postemergence
[9] = 800 g ae/ha R-dichlorprop postemergence
[10] = 3200 g ae/ha R-dichlorprop postemergence

O=C(O)COc1ccc(Cl)cc1Cl [2,4-D, 2,4-dichlorophenoxyacetic acid]
% Injury 20-40% (number of individuals) [1, 3]: 0 | % Injury <20% (number of individuals) [1, 3]: 6 | % Injury >40% (number of individuals) [1, 3]: 2 | % Injury Ave [1, 3]: 16% | % Injury 20-40% (number of individuals) [1, 4]: 1 | % Injury <20% (number of individuals) [1, 4]: 6 | % Injury >40% (number of individuals) [1, 4]: 1 | % Injury Ave [1, 4]: 11% | % Injury 20-40% (number of individuals) [1, 5]: 2 | % Injury <20% (number of individuals) [1, 5]: 5 | % Injury >40% (number of individuals) [1, 5]: 1 | % Injury Ave [1, 5]: 15% | % Injury 20-40% (number of individuals) [1, 6]: 0 | % Injury <20% (number of individuals) [1, 6]: 8 | % Injury >40% (number of individuals) [1, 6]: 0 | % Injury 20-40% (number of individuals) [2, 3]: 0 | % Injury <20% (number of individuals) [2, 3]: 10 | % Injury >40% (number of individuals) [2, 3]: 0 | % Injury Ave [2, 3]: 0% | % Injury 20-40% (number of individuals) [2, 4]: 0 | % Injury <20% (number of individuals) [2, 4]: 10 | % Injury >40% (number of individuals) [2, 4]: 0 | % Injury Ave [2, 4]: 0% | % Injury 20-40% (number of individuals) [2, 5]: 0 | % Injury <20% (number of individuals) [2, 5]: 10 | % Injury >40% (number of individuals) [2, 5]: 0 | % Injury Ave [2, 5]: 0% | % Injury 20-40% (number of individuals) [2, 6]: 1 | % Injury <20% (number of individuals) [2, 6]: 9 | % Injury >40% (number of individuals) [2, 6]: 0 | % Injury Ave [2, 6]: 2%

C[C@@H](Oc1ccc(Cl)cc1Cl)C(=O)O [(R)-dichlorprop, R-2,4-dichlorophenoxypropionic acid]
% Injury 20-40% (number of individuals) [1, 7]: 0 | % Injury <20% (number of individuals) [1, 7]: 0 | % Injury >40% (number of individuals) [1, 7]: 8 | % Injury Ave [1, 7]: 63% | % Injury 20-40% (number of individuals) [1, 8]: 0 | % Injury <20% (number of individuals) [1, 8]: 0 | % Injury >40% (number of individuals) [1, 8]: 8 | % Injury Ave [1, 8]: 85% | % Injury 20-40% (number of individuals) [1, 9]: 0 | % Injury <20% (number of individuals) [1, 9]: 0 | % Injury >40% (number of individuals) [1, 9]: 8 | % Injury Ave [1, 9]: 96% | % Injury 20-40% (number of individuals) [1, 10]: 0 | % Injury <20% (number of individuals) [1, 10]: 0 | % Injury >40% (number of individuals) [1, 10]: 8 | % Injury Ave [1, 10]: 98% | % Injury 20-40% (number of individuals) [2, 7]: 0 | % Injury <20% (number of individuals) [2, 7]: 10 | % Injury >40% (number of individuals) [2, 7]: 0 | % Injury Ave [2, 7]: 0% | % Injury 20-40% (number of individuals) [2, 8]: 0 | % Injury <20% (number of individuals) [2, 8]: 10 | % Injury >40% (number of individuals) [2, 8]: 0 | % Injury Ave [2, 8]: 0% | % Injury 20-40% (number of individuals) [2, 9]: 0 | % Injury <20% (number of individuals) [2, 9]: 10 | % Injury >40% (number of individuals) [2, 9]: 0 | % Injury Ave [2, 9]: 0% | % Injury 20-40% (number of individuals) [2, 10]: 0 | % Injury <20% (number of individuals) [2, 10]: 10 | % Injury >40% (number of individuals) [2, 10]: 0 | % Injury Ave [2, 10]: 0%
